Where a name gives a salt, the structure may show the parent alone.
Key:
Sarcoma 180 [1] = assay: Test of Antitumor Effect to Sarcoma 180 by Subcutaneous Administration; format: in vivo, ICR female mice; conditions: 20 mg/Kg subcutaneous; for N: number of living mice, 0 weeks / N: number of living mice, 2 weeks / N: number of living mice, 4 weeks / N: number of living mice, 6 weeks / N: number of living mice, 8 weeks / N: number of living mice, 10 weeks: group of 6
Procedure: To the control group, a physiological saline was similarly administered. […] The diameter D (mm) of the tumor was measured, and the average value and the number N of the living mice were determined to obtain results shown in Table 4.

[2] = Test of Acute Toxicity by Oral Administration; format: in vivo, ddY male mice; conditions: mice, after 7 days
Procedure: A solution or suspension of the compound in a physiological saline was orally administered to one group of three ddY male mice, and after 7 days, the estimated LD50 value was determined.

EL-4 leukemic cells = assay: In-Vitro Test of Inhibition of Growth of Cancer Cell by Macrophage (3H-thymidine take-in); format: cell-based, C57 BL/6J mouse (EL-4 cells); ddY female mice (macrophages); conditions: 8 mg/Kg intraperitoneal; for Take-in Ratio (average value, %): macrophages collected after 4 days, 3H-thymidine incorporated into EL-4 cells; for inhibition of take-in of 3H-thymidine by EL-4 cells / macrophage activation (in words): hydrochloride
Procedure: The results of the test of the action of the effective ingredient of the present invention on the macrophage will now be described with reference to the following Test 3. More specifically, the separated macrophage and EL-4 leukemic cell were mixed and cultured, and ^3 H-thymidine was added to a culture medium and the quantity of ^3 H-thymidine incorporated into the EL-4 cell was determined to examine the activity of the macrophage. When the macrophage is activated by administration of the effective ingredient of the present invention, inhibition of the growth of EL-4 cell, that is, phagocytosis of the cancer cell by the macrophage, is observed. Accordingly, if the take-in amount of ^3 H-thymidine is measured and this amount is reduced, it is confirmed that the macrophage has been activated. Test Procedures: […] The dose was 8 mg per Kg of the body weight. To the control group, a physiological saline was similarly administered. After passage of 4 days, exuded abdominal cells were collected and deposited on a plastic Petri dish to collect macrophages. […] Then, 0.1 μCi of ^3 H-thymidine was added and culturing was further conducted for 16 hours. Cells were collected on a filter paper from the culture medium and the amount of ^3 H-thymidine incorporated in was determined by a liquid scintillation counter.

[3] = system: delayed hypersensitivity induced by picryl chloride; assay: Test of Reinforcement of Delayed Hypersensitivity (picryl chloride, mouse ear thickness); format: in vivo, ICR male mice; conditions: 50 mg/Kg oral, simultaneously with sensitization; 24 hours after challenge; * P<0.05, ** P<0.01
Source text: Various test systems using animals have been proposed for determining the immunopotentiative action. Results of the test of reinforcement of the delayed hypersensitivity, which is a typical test among these tests, will now be described.
This system was used for the test of reinforcement of the delayed hypersensitivity.
One group of eight ICR male mice, each having a body weight of about 30 g, was used for the test.
Sensitization was effected by coating a 7% solution of picryl chloride in a 4/1 mixture of olive oil and acetone on the shaved abdomen of the mouse.
Simultaneously with sensitization, a solution or suspension of the compound of the present invention in a 0.2% solution of carboxymethyl cellulose in a physiological saline was orally administered to the mouse at a dose of 50 mg per Kg of the body weight. To the control group, a 0.2% carboxymethyl cellulose solution in a physiological saline was similarly administered.
The delayed hypersensitivity was challenged 7 days after sensitization by gripping the ear of the mouse by a forceps wrapped with a felt impregnated with a 1% solution of picryl chloride in olive oil and coating the ear with the solution. The thickness of the ear was measured before challenging and 24 hours after challenging and the ratio of increase of the thickness (average value of both the ears in eight mice±standard deviation) was obtained as shown in Table 1.
For comparison, the test was similarly carried out by using Levamisole hydrochloride, and the obtained results are shown in Table 1. F.t tests were carried out. The group in which the test result was significant at a level of P<0.05 was marked by *, and the group in which the test result was significant at a level of P<0.01 was marked by **.

[4] = system: adjuvant arthritis caused by Mycobacterium tuberculosis adjuvant; assay: Adjuvant Arthritis Test; format: in vivo, SD male rats; conditions: 5 mg/Kg subcutaneous, 9 times, left hind leg, * P<0.05, ** P<0.01
Procedure: The adjuvant arthritis in rats caused by injection of a Mycobacterium tuberculosis adjuvant is often utilized for a model test of chronic rheumatoid arthritis in men.
The mechanism of manifestation of this disease has not completely been elucidated, but it is known that the cellular immunity takes an important role. The immunopotentiative action of the compound of the present invention was tested according to this known adjuvant arthritis test.
A group of ten 9-weeks-old SD male rats were used for the test. In 0.1 ml of fluid paraffin, 0.4 mg of dry dead cells of Mycobacterium tuberculosis were suspended, and the suspension was injected under the heel skin of the right hind leg. The compound of the present invention was subcutaneously administered 9 times as a whole before and after injection of the adjuvant. The test compound was dissolved in a physiological saline and administered at a dose of 5 mg per Kg of the body weight. The swelling volume of the left hind leg as measured during the period of from the day of injection to the day of completion of the test, and the swelling ratio was calculated. For comparison, the test was similarly conducted by using Levamisole hydrochloride. F.t tests were carried out on the obtained test results. The group in which the test result was significant at a level of P<0.05 was marked by *, and the group in which the test result was significant at a level of P<0.01 was marked by **.

Sarcoma 180 [5] = assay: Test of Antitumor Effect to Sarcoma 180 by Oral Administration; format: in vivo, ICR female mice; conditions: for D: average diameter (mm) of tumor, 2 weeks / D: average diameter (mm) of tumor, 4 weeks / D: average diameter (mm) of tumor, 6 weeks / D: average diameter (mm) of tumor, 8 weeks / D: average diameter (mm) of tumor, 10 weeks: 100 mg/Kg oral once a day, 10 days; for N: number of living mice, 0 weeks / N: number of living mice, 2 weeks / N: number of living mice, 4 weeks / N: number of living mice, 6 weeks / N: number of living mice, 8 weeks / N: number of living mice, 10 weeks: group of 6
Procedure: To the control group, a physiological saline was similarly administered. The dose of the compound was 100 mg per Kg of the body weight. The diameter D (mm) of the tumor was measured, and the average value and the number N of the living mice were determined to obtain results shown in Table 4.

c1ccc([C@H]2CN3CCSC3=N2)cc1 [Levamisole hydrochloride, reference compound]
antitumor activity (in words) (Sarcoma 180 [1]): no substantial antitumor activity | N: number of living mice, 0 weeks (Sarcoma 180 [1]): 6 | D: average diameter (mm) of tumor, 2 weeks (Sarcoma 180 [1]): 3.6 mm | N: number of living mice, 2 weeks (Sarcoma 180 [1]): 6 | D: average diameter (mm) of tumor, 4 weeks (Sarcoma 180 [1]): 14.1 mm | N: number of living mice, 4 weeks (Sarcoma 180 [1]): 6 | D: average diameter (mm) of tumor, 6 weeks (Sarcoma 180 [1]): 22.2 mm | N: number of living mice, 6 weeks (Sarcoma 180 [1]): 6 | D: average diameter (mm) of tumor, 8 weeks (Sarcoma 180 [1]): 26.8 mm | N: number of living mice, 8 weeks (Sarcoma 180 [1]): 3 | D: average diameter (mm) of tumor, 10 weeks (Sarcoma 180 [1]): 23.8 mm | N: number of living mice, 10 weeks (Sarcoma 180 [1]): 2 | estimated LD50 value [2]: 150 to 200 mg/kg | Take-in Ratio (average value, %) (EL-4 leukemic cells): 53.3% | inhibition of take-in of 3H-thymidine by EL-4 cells / macrophage activation (in words) (EL-4 leukemic cells): does not exhibit such action | inhibition of take-in of 3H-thymidine by EL-4 cells / macrophage activation (in words) (EL-4 leukemic cells; listed as Levamisole): hardly exhibits such action | Ratio of Increase of Ear Thickness (average value ± standard variation, %) [3]: 33.9 ± 3.0% | Swelling Ratio (average value ± standard variation, %), 15 days [4]: 54.6 ± 11.3% | Swelling Ratio (average value ± standard variation, %), 18 days [4]: 61.7 ± 9.8% | Swelling Ratio (average value ± standard variation, %), 21 days [4]: 73.3 ± 14.6% | D: average diameter (mm) of tumor, 2 weeks (Sarcoma 180 [5]): 8.1 mm | D: average diameter (mm) of tumor, 4 weeks (Sarcoma 180 [5]): 16.8 mm | D: average diameter (mm) of tumor, 6 weeks (Sarcoma 180 [5]): 23.1 mm | D: average diameter (mm) of tumor, 8 weeks (Sarcoma 180 [5]): 27.4 mm | D: average diameter (mm) of tumor, 10 weeks (Sarcoma 180 [5]): 25.5 mm | antitumor action (in words) (Sarcoma 180 [5]; 100 mg/Kg oral, repeatedly): no substantial antitumor action was observed | N: number of living mice, 0 weeks (Sarcoma 180 [5]; 100 mg/Kg oral): 6 | N: number of living mice, 2 weeks (Sarcoma 180 [5]; 100 mg/Kg oral): 6 | N: number of living mice, 4 weeks (Sarcoma 180 [5]; 100 mg/Kg oral): 6 | N: number of living mice, 6 weeks (Sarcoma 180 [5]; 100 mg/Kg oral): 6 | N: number of living mice, 8 weeks (Sarcoma 180 [5]; 100 mg/Kg oral): 6 | N: number of living mice, 10 weeks (Sarcoma 180 [5]; 100 mg/Kg oral): 5

CCN(CC)C(=O)N1CCN(c2nc(-c3ccccc3)cs2)CC1 [drawing 8]
Ratio of Increase of Ear Thickness (average value ± standard variation, %) [3]: 37.5 ± 2.1%

CCN(CC)C(=O)N1CCN(c2nccs2)CC1 [drawing 9]
Ratio of Increase of Ear Thickness (average value ± standard variation, %) [3]: 36.6 ± 3.0%

CCN(CC)C(=O)N1CCN(c2nc(-c3ccccc3)cs2)CC1 [drawing 10]
Swelling Ratio (average value ± standard variation, %), 15 days [4]: 43.5 ± 13.9% | Swelling Ratio (average value ± standard variation, %), 18 days [4]: 41.5 ± 12.6% | Swelling Ratio (average value ± standard variation, %), 21 days [4]: 52.9 ± 11.2%

CCN(CC)C(=O)N1CCN(c2nccs2)CC1 [drawing 11]
Swelling Ratio (average value ± standard variation, %), 15 days [4]: 60.9 ± 8.0% | Swelling Ratio (average value ± standard variation, %), 18 days [4]: 59.8 ± 7.8% | Swelling Ratio (average value ± standard variation, %), 21 days [4]: 50.5 ± 10.0%

CCN(CC)C(=O)N1CCN(c2nc(-c3ccccc3)cs2)CC1 [drawing 12]
Take-in Ratio (average value, %) (EL-4 leukemic cells): 21.0%

CCN(CC)C(=O)N1CCN(c2nccs2)CC1 [drawing 13]
Take-in Ratio (average value, %) (EL-4 leukemic cells): 25.8%

CCN(CC)C(=O)N1CCN(c2nc(-c3ccccc3)cs2)CC1 [drawing 14]
D: average diameter (mm) of tumor, 2 weeks (Sarcoma 180 [5]): 5.6 mm | D: average diameter (mm) of tumor, 4 weeks (Sarcoma 180 [5]): 3.5 mm | D: average diameter (mm) of tumor, 6 weeks (Sarcoma 180 [5]): 4.6 mm | D: average diameter (mm) of tumor, 8 weeks (Sarcoma 180 [5]): 0 mm | D: average diameter (mm) of tumor, 10 weeks (Sarcoma 180 [5]): 0 mm | N: number of living mice, 0 weeks (Sarcoma 180 [5]; 100 mg/Kg oral): 6 | N: number of living mice, 2 weeks (Sarcoma 180 [5]; 100 mg/Kg oral): 6 | N: number of living mice, 4 weeks (Sarcoma 180 [5]; 100 mg/Kg oral): 6 | N: number of living mice, 6 weeks (Sarcoma 180 [5]; 100 mg/Kg oral): 6 | N: number of living mice, 8 weeks (Sarcoma 180 [5]; 100 mg/Kg oral): 6 | N: number of living mice, 10 weeks (Sarcoma 180 [5]; 100 mg/Kg oral): 6

CCN(CC)C(=O)N1CCN(c2nccs2)CC1 [drawing 15]
D: average diameter (mm) of tumor, 2 weeks (Sarcoma 180 [5]): 8.6 mm | D: average diameter (mm) of tumor, 4 weeks (Sarcoma 180 [5]): 7.5 mm | D: average diameter (mm) of tumor, 6 weeks (Sarcoma 180 [5]): 6.7 mm | D: average diameter (mm) of tumor, 8 weeks (Sarcoma 180 [5]): 7.7 mm | D: average diameter (mm) of tumor, 10 weeks (Sarcoma 180 [5]): 0 mm | N: number of living mice, 0 weeks (Sarcoma 180 [5]; 100 mg/Kg oral): 6 | N: number of living mice, 2 weeks (Sarcoma 180 [5]; 100 mg/Kg oral): 6 | N: number of living mice, 4 weeks (Sarcoma 180 [5]; 100 mg/Kg oral): 6 | N: number of living mice, 6 weeks (Sarcoma 180 [5]; 100 mg/Kg oral): 6 | N: number of living mice, 8 weeks (Sarcoma 180 [5]; 100 mg/Kg oral): 6 | N: number of living mice, 10 weeks (Sarcoma 180 [5]; 100 mg/Kg oral): 6

CCN(CC)C(=O)N1CCN(c2nc(-c3ccccc3)cs2)CC1 [drawing 16]
N: number of living mice, 0 weeks (Sarcoma 180 [1]): 6 | D: average diameter (mm) of tumor, 2 weeks (Sarcoma 180 [1]): 2.6 mm | N: number of living mice, 2 weeks (Sarcoma 180 [1]): 6 | D: average diameter (mm) of tumor, 4 weeks (Sarcoma 180 [1]): 3.5 mm | N: number of living mice, 4 weeks (Sarcoma 180 [1]): 6 | D: average diameter (mm) of tumor, 6 weeks (Sarcoma 180 [1]): 6.5 mm | N: number of living mice, 6 weeks (Sarcoma 180 [1]): 6 | D: average diameter (mm) of tumor, 8 weeks (Sarcoma 180 [1]): 0.6 mm | N: number of living mice, 8 weeks (Sarcoma 180 [1]): 6 | D: average diameter (mm) of tumor, 10 weeks (Sarcoma 180 [1]): 0 mm | N: number of living mice, 10 weeks (Sarcoma 180 [1]): 6

CCN(CC)C(=O)N1CCN(c2nccs2)CC1 [drawing 17]
N: number of living mice, 0 weeks (Sarcoma 180 [1]): 6 | D: average diameter (mm) of tumor, 2 weeks (Sarcoma 180 [1]): 4.9 mm | N: number of living mice, 2 weeks (Sarcoma 180 [1]): 6 | D: average diameter (mm) of tumor, 4 weeks (Sarcoma 180 [1]): 6.7 mm | N: number of living mice, 4 weeks (Sarcoma 180 [1]): 6 | D: average diameter (mm) of tumor, 6 weeks (Sarcoma 180 [1]): 9.6 mm | N: number of living mice, 6 weeks (Sarcoma 180 [1]): 6 | D: average diameter (mm) of tumor, 8 weeks (Sarcoma 180 [1]): 5.6 mm | N: number of living mice, 8 weeks (Sarcoma 180 [1]): 6 | D: average diameter (mm) of tumor, 10 weeks (Sarcoma 180 [1]): 0 mm | N: number of living mice, 10 weeks (Sarcoma 180 [1]): 6

Source: US4476128A, “2-Substituted thiazolyl-piperazine compounds, process for preparation thereof and utilizations thereof _” (Mitsuitoatsu Chemicals, Inc., priority 1980, dated 1984)
